Results reported in PubChem BioAssay (NCI).
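Exposure lasted 48 hours, with cells grown in 96-well plates and compounds tested at five concentrations. At the TGI there is no net growth.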

What was measured:
Experiment in all cases: growth of human tumour cells (NCI), 48 h
NCI-H226 lung = tested on: NCI-H226 lung
SF-268 CNS = tested on: SF-268 CNS
HCT-15 colon = tested on: HCT-15 colon
IGROV1 ovarian = tested on: IGROV1 ovarian
BT-549 breast = tested on: BT-549 breast
MALME-3M melanoma = tested on: MALME-3M melanoma
OVCAR-5 ovarian = tested on: OVCAR-5 ovarian
SNB-75 CNS = tested on: SNB-75 CNS
HOP-62 NSCLC = tested on: HOP-62 NSCLC
SW-620 colon = tested on: SW-620 colon
786-0 renal = tested on: 786-0 renal
U251 CNS = tested on: U251 CNS
NCI-H522 lung = tested on: NCI-H522 lung
HS 578T breast = tested on: HS 578T breast
HL-60(TB) leukemia = tested on: HL-60(TB) leukemia
ACHN renal = tested on: ACHN renal
TK-10 renal = tested on: TK-10 renal
UACC-257 melanoma = tested on: UACC-257 melanoma
NCI-H460 lung = tested on: NCI-H460 lung
UO-31 renal = tested on: UO-31 renal
OVCAR-4 ovarian = tested on: OVCAR-4 ovarian
MOLT-4 leukemia = tested on: MOLT-4 leukemia
COLO 205 colon = tested on: COLO 205 colon
M14 melanoma = tested on: M14 melanoma
NCI-H23 lung = tested on: NCI-H23 lung
A549 NSCLC = tested on: A549 NSCLC
MDA-N = tested on: MDA-N
HOP-92 NSCLC = tested on: HOP-92 NSCLC
SK-MEL-2 melanoma = tested on: SK-MEL-2 melanoma
SK-MEL-5 melanoma = tested on: SK-MEL-5 melanoma
T-47D breast = tested on: T-47D breast
MCF7 breast = tested on: MCF7 breast
PC-3 prostate = tested on: PC-3 prostate
HCT-116 colon = tested on: HCT-116 colon
SF-295 CNS = tested on: SF-295 CNS
RXF 393 renal = tested on: RXF 393 renal
OVCAR-8 ovarian = tested on: OVCAR-8 ovarian
LOX IMVI melanoma = tested on: LOX IMVI melanoma
UACC-62 melanoma = tested on: UACC-62 melanoma
KM12 colon = tested on: KM12 colon
HCC-2998 colon = tested on: HCC-2998 colon
NCI/ADR-RES ovarian = tested on: NCI/ADR-RES ovarian
MDA-MB-231 breast = tested on: MDA-MB-231 breast
SNB-19 CNS = tested on: SNB-19 CNS
SK-OV-3 ovarian = tested on: SK-OV-3 ovarian
MDA-MB-435 = tested on: MDA-MB-435
SN12C renal = tested on: SN12C renal
RPMI-8226 leukemia = tested on: RPMI-8226 leukemia
SF-539 CNS = tested on: SF-539 CNS
K-562 leukemia = tested on: K-562 leukemia
HT29 colon = tested on: HT29 colon
CAKI-1 renal = tested on: CAKI-1 renal
EKVX NSCLC = tested on: EKVX NSCLC
SR leukemia = tested on: SR leukemia
SK-MEL-28 melanoma = tested on: SK-MEL-28 melanoma
CCRF-CEM leukemia = tested on: CCRF-CEM leukemia
DU-145 prostate = tested on: DU-145 prostate
A498 renal = tested on: A498 renal
OVCAR-3 ovarian = tested on: OVCAR-3 ovarian

SMILES: COc1ccc2c(c1)CN1C(=N2)CSC1c1c(Cl)cccc1[N+](=O)[O-] (stereo not given)
- TGI (NCI-H226 lung): 32.2 µM
- TGI (SF-268 CNS): 53.8 µM
- TGI (HCT-15 colon): 40.3 µM
- TGI (IGROV1 ovarian): > 100 µM
- TGI (BT-549 breast): 31.9 µM
- TGI (MALME-3M melanoma): > 100 µM
- TGI (OVCAR-5 ovarian): 95.7 µM
- TGI (SNB-75 CNS): 74.3 µM
- TGI (HOP-62 NSCLC): > 100 µM
- TGI (SW-620 colon): 50.6 µM
- TGI (786-0 renal): 76.9 µM
- TGI (U251 CNS): 37 µM
- TGI (NCI-H522 lung): 68.6 µM
- TGI (HS 578T breast): > 100 µM
- TGI (HL-60(TB) leukemia): 43.8 µM
- TGI (ACHN renal): > 100 µM
- TGI (TK-10 renal): 84.1 µM
- TGI (UACC-257 melanoma): 42.6 µM
- TGI (NCI-H460 lung): 31.5 µM
- TGI (UO-31 renal): 65.1 µM
- TGI (OVCAR-4 ovarian): > 100 µM
- TGI (MOLT-4 leukemia): 34.8 µM
- TGI (COLO 205 colon): 67.9 µM
- TGI (M14 melanoma): 37.3 µM
- TGI (NCI-H23 lung): 56.1 µM
- TGI (A549 NSCLC): > 100 µM
- TGI (MDA-N): 40.9 µM
- TGI (HOP-92 NSCLC): 55.7 µM
- TGI (SK-MEL-2 melanoma): 34.1 µM
- TGI (SK-MEL-5 melanoma): 27 µM
- TGI (T-47D breast): > 100 µM
- TGI (MCF7 breast): 30 µM
- TGI (PC-3 prostate): 66.3 µM
- TGI (HCT-116 colon): 29.5 µM
- TGI (SF-295 CNS): 52.6 µM
- TGI (RXF 393 renal): 52.2 µM
- TGI (OVCAR-8 ovarian): > 100 µM
- TGI (LOX IMVI melanoma): 34.9 µM
- TGI (UACC-62 melanoma): 37 µM
- TGI (KM12 colon): 44.2 µM
- TGI (HCC-2998 colon): 41.6 µM
- TGI (NCI/ADR-RES ovarian): 46.4 µM
- TGI (MDA-MB-231 breast): 34.6 µM
- TGI (SNB-19 CNS): > 100 µM
- TGI (SK-OV-3 ovarian): > 100 µM
- TGI (MDA-MB-435): 47.5 µM
- TGI (SN12C renal): 35 µM
- TGI (RPMI-8226 leukemia): 34.1 µM
- TGI (SF-539 CNS): 33 µM
- TGI (K-562 leukemia): 61.1 µM
- TGI (HT29 colon): 38.1 µM
- TGI (CAKI-1 renal): 64.2 µM
- TGI (EKVX NSCLC): 77.2 µM
- TGI (SR leukemia): 39 µM
- TGI (SK-MEL-28 melanoma): 44.3 µM

SMILES: N#Cc1cc(-c2nc3ccc(F)cc3s2)ccc1N
- TGI (NCI-H226 lung): > 100 µM
- TGI (SF-268 CNS): > 100 µM
- TGI (HCT-15 colon): > 100 µM
- TGI (IGROV1 ovarian): > 100 µM
- TGI (BT-549 breast): > 100 µM
- TGI (MALME-3M melanoma): > 100 µM
- TGI (OVCAR-5 ovarian): > 100 µM
- TGI (SNB-75 CNS): > 100 µM
- TGI (HOP-62 NSCLC): > 100 µM
- TGI (SW-620 colon): > 100 µM
- TGI (786-0 renal): > 100 µM
- TGI (U251 CNS): > 100 µM
- TGI (NCI-H522 lung): > 100 µM
- TGI (HS 578T breast): > 100 µM
- TGI (HL-60(TB) leukemia): > 100 µM
- TGI (ACHN renal): > 100 µM
- TGI (TK-10 renal): > 100 µM
- TGI (CCRF-CEM leukemia): > 100 µM
- TGI (UACC-257 melanoma): > 100 µM
- TGI (NCI-H460 lung): > 100 µM
- TGI (UO-31 renal): > 100 µM
- TGI (OVCAR-4 ovarian): > 100 µM
- TGI (MOLT-4 leukemia): > 100 µM
- TGI (COLO 205 colon): > 100 µM
- TGI (M14 melanoma): > 100 µM
- TGI (NCI-H23 lung): > 100 µM
- TGI (A549 NSCLC): > 100 µM
- TGI (MDA-N): > 100 µM
- TGI (HOP-92 NSCLC): > 100 µM
- TGI (SK-MEL-5 melanoma): > 100 µM
- TGI (T-47D breast): > 100 µM
- TGI (MCF7 breast): > 100 µM
- TGI (PC-3 prostate): > 100 µM
- TGI (DU-145 prostate): > 100 µM
- TGI (HCT-116 colon): > 100 µM
- TGI (SF-295 CNS): > 100 µM
- TGI (RXF 393 renal): > 100 µM
- TGI (OVCAR-8 ovarian): > 100 µM
- TGI (LOX IMVI melanoma): > 100 µM
- TGI (UACC-62 melanoma): > 100 µM
- TGI (KM12 colon): > 100 µM
- TGI (NCI/ADR-RES ovarian): > 100 µM
- TGI (MDA-MB-231 breast): > 100 µM
- TGI (SNB-19 CNS): > 100 µM
- TGI (A498 renal): > 100 µM
- TGI (SK-OV-3 ovarian): 96.6 µM
- TGI (MDA-MB-435): > 100 µM
- TGI (SN12C renal): > 100 µM
- TGI (RPMI-8226 leukemia): > 100 µM
- TGI (SF-539 CNS): > 100 µM
- TGI (K-562 leukemia): > 100 µM
- TGI (OVCAR-3 ovarian): > 100 µM
- TGI (HT29 colon): > 100 µM
- TGI (CAKI-1 renal): > 100 µM
- TGI (EKVX NSCLC): > 100 µM
